Experiment [1] concerns totipotency genes, maternal genes and ZGA genes. The experiment is described as follows: RNA-seq analysis of specific gene sets in totipotent cell induction. The following applies: for role in induction of totipotent stem cells (upregulation of totipotency genes, maternal genes and ZGA genes): RNA-seq, specific gene sets. Format: cell-based, mouse.
Experiment [2] deals with Wnt signaling. Description: GO analysis of Wnt signaling-targeted genes in ciTotiSC culture conditions. The following applies: 1-AKP withdrawn in ciTotiSC culture conditions. The experiment is classed as cell-based, mouse. The text has this:
(§1) Meanwhile, the inventors also observed a prolongation of the G2 phase of the cell cycle after induction of totipotent stem cells (ciTotiSCs), which was consistent with the difference between early 2C embryos and blastocysts (FIG. 10i).

The subject of experiment [3] is totipotent stem cells (ciTotiSCs). The experiment is described as follows: Cell cycle G2 phase of totipotent stem cells (ciTotiSCs). Format: cell-based, mouse. The following applies: 1-Azakenpaullone withdrawn from ciTotiSC culture conditions.
From the text: as §1

The subject of experiment [4] is Wnt signaling. Conditions: studies have shown; cited from earlier work.
A further experiment relates to NF-κB signaling. The experiment is described as follows: GO analysis and gene expression after WS6 withdrawal in ciTotiSC culture conditions. Format: cell-based, mouse. The text has this: WS6 is an IKK—NF-κB inhibitor that was previously shown to promote post-mitotic cell proliferation. […] Furthermore, it has been reported that downregulation of NF-κB during zygote development is critical for its totipotent state, and activation of NF-κB triggers subsequent development after ZGA (Akihiko Nishikimi, 1999; Paciolla et al. 2011). Therefore, WS6 may play a role in promoting and stabilizing induction of totipotent stem cells (ciTotiSCs), in part by inhibiting the NF-κB mediated immune response triggered by ERV activation (FIGS. 10k, j).

Each structure is given as a SMILES string.

As to `O=C1Cc2c([nH]c3ccc(Br)cc23)-c2ncccc2N1` [1-Azakenpaullone], the “role in induction of totipotent stem cells (upregulation of totipotency genes, maternal genes and ZGA genes)” value (from here on “role in induction”) in experiment [1] is given as “important for the induction of totipotent stem cells”. Besides, the “specific Wnt signaling-targeted genes after withdrawal” value with Wnt signaling [2] is listed as “not up-regulated”. Also, in experiment [3], the “G2 phase prolongation of ciTotiSCs after withdrawal” value is recorded as “reduced”. In addition, the “Wnt signaling downstream gene expression and cell cycle arrest” value with Wnt signaling [4] is “induces specific Wnt signaling downstream gene expression and G2/M arrest simultaneously”.
Consider `Cc1ccc(C2=CCC(C)(C)c3ccc(C#Cc4ccc(C(=O)O)cc4)cc32)cc1` [AGN193109], for which the “gene induction in the presence of the RA antagonist” value in experiment [1] (in the presence of AGN193109) is recorded as “could not be induced”.
Turning to `C/C(=C\c1ccc(C(=O)O)cc1)c1ccc2c(c1)C(C)(C)CCC2(C)C` [TTNPB], in experiment [1], the “activation of totipotency, maternal and ZGA genes rich in RAR-binding motifs” value is recorded as “could directly activate”; the “role in induction” value is listed as “important for the induction of totipotent stem cells”.
As to `CN1CCN(Cc2ccc(NC(=O)Cc3ccc(Oc4cc(NC(=O)C5CC5)ncn4)cc3)cc2C(F)(F)F)CC1` [WS6], the “role in induction” value in experiment [1] is recorded as “important for the induction of totipotent stem cells”. Also, the “expression of genes downstream of NF-κB signaling” value with NF-κB signaling (WS6 withdrawn) is on record as “up-regulated”. Further, the “GO analysis of differential genes after WS6 ablation” value with NF-κB signaling (ciTotiSC culture conditions) is on record as “enriched multiple innate immunity-related pathways, especially NF-κB signaling”.

Values taken from patent US20250263669A1, “INDUCED TOTIPOTENT STEM CELLS AND PREPARATION METHOD THEREFOR” (TSINGHUA UNIVERSITY, priority 2021, published 2025).
